Measurements as given in ChEMBL document CHEMBL6134864, “Discovery of FLT3-ITD Inhibitor Clifutinib: A Novel Biphenylacetylene Urea Derivative in Clinical Trials for the Treatment of Relapsed/Refractory FLT3-ITD+ Acute Myeloid Leukemia” (J Med Chem, 2025).

Legend:
[1] = Half life in rat plasma at 5 mg/kg, po measured up to 24 hrs by LC-MS/MS analysis; type: ADME, organism-based
[2] = Clearance in rat plasma at 5 mg/kg, po measured up to 24 hrs by LC-MS/MS analysis; type: ADME, organism-based
[3] = Oral bioavailability in rat plasma at 5 mg/kg measured up to 24 hrs by LC-MS/MS analysis; type: ADME, organism-based
MV4-11 = assay: cells; conditions: Homo sapiens, MV4-11, 72 h
Description: Antiproliferative activity against human MV4-11 cells assessed as inhibition of cell growth incubated for 72 hrs by celltiter-glo luminescent cell viability assay

[4] = AUClast in rat plasma at 5 mg/kg, po measured up to 24 hrs by LC-MS/MS analysis; type: ADME, organism-based
[5] = Cmax in rat plasma at 5 mg/kg, po measured up to 24 hrs by LC-MS/MS analysis; type: ADME, organism-based
MOLM-13 = assay: Antitumor activity against human MOLM-13 cells xenografted in NOD/SCID mouse model assessed as tumor growth inhibition at 50 mg/kg/day, po by caliper analysis relative to control; type: functional; conditions: read-out: TGI
hERG (KCNH2) = hERG (KCNH2) (Homo sapiens, UniProt Q12809); assay: Inhibition of human ERG expressed in CHO cells at 30 uM by manual patch clamp assay relative to control; type: toxicity, cell-based; conditions: CHO cells expressing human ERG
Sequence of hERG (KCNH2) (Q12809 whole entry): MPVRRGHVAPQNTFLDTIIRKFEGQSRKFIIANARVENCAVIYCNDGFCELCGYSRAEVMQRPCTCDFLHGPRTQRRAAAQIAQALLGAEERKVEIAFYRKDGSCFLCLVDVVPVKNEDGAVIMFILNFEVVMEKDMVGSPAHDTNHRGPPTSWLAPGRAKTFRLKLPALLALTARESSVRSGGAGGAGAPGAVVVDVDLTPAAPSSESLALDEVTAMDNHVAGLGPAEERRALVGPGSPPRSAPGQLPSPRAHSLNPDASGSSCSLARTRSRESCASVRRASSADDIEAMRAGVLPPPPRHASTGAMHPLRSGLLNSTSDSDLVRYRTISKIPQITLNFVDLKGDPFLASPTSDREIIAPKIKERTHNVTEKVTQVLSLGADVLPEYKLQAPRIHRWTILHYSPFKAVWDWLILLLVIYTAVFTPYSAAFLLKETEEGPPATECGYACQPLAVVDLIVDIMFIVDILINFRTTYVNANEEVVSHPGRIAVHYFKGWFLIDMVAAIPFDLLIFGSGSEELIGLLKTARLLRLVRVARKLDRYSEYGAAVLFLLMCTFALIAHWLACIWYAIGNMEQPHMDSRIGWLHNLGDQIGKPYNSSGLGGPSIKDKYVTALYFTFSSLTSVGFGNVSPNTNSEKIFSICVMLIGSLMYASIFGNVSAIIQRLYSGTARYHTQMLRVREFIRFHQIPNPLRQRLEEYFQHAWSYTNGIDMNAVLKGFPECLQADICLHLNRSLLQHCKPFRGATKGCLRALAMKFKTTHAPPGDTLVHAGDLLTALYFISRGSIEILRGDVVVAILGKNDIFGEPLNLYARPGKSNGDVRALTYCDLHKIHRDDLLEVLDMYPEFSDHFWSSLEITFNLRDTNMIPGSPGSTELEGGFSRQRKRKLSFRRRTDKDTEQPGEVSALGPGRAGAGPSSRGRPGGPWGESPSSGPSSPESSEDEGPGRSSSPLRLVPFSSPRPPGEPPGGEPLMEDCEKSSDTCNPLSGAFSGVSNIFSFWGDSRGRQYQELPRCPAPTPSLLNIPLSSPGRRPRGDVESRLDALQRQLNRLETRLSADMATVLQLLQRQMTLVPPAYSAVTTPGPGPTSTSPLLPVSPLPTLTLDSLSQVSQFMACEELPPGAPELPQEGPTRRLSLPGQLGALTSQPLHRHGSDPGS

BaF3 [6] = assay: Antiproliferative activity against mouse BaF3 cells harbouring FLT3-ITD-D835V mutant assessed as inhibition of cell growth incubated for 72 hrs by celltiter-glo luminescent cell viability assay; type: functional, cell-based; conditions: BaF3, 72 h
BaF3 [7] = assay: cells; conditions: Mus musculus, BaF3, 72 h
Description: Antiproliferative activity against mouse BaF3 cells harbouring FLT3-D83HY mutant assessed as inhibition of cell growth incubated for 72 hrs by celltiter-glo luminescent cell viability assay

BaF3 [8] = assay: Antiproliferative activity against mouse BaF3 cells harbouring FLT3-ITD-F691I mutant assessed as inhibition of cell growth incubated for 72 hrs by celltiter-glo luminescent cell viability assay; type: functional, cell-based; conditions: BaF3, 72 h
BaF3 [9] = assay: cells; conditions: Mus musculus, BaF3, 72 h; remark: listed apart in the source
BaF3 [10] = assay: cells; conditions: Mus musculus, BaF3, 72 h; remark: listed apart in the source
BaF3 [11] = assay: Antiproliferative activity against wild type mouse BaF3 cells assessed as inhibition of cell growth incubated for 72 hrs by celltiter-glo luminescent cell viability assay; type: functional, cell-based; conditions: BaF3, 72 h
BaF3 [12] = assay: cells; conditions: Mus musculus, BaF3, 72 h; remark: listed apart in the source
BaF3 [13] = assay: Antiproliferative activity against mouse BaF3 cells harbouring FLT3-ITD-D835Y mutant assessed as inhibition of cell growth incubated for 72 hrs by celltiter-glo luminescent cell viability assay; type: functional, cell-based; conditions: BaF3, 72 h
[14] = Antitumor activity against human […] cells harbouring FLT3-ITD xenografted in NOD/SCID mouse model assessed as tumor regression rate at 20 mg/kg/day, po measured for 8 days by caliper analysis relative to control; type: functional, MV4-11; conditions: time 8 day
BaF3 [15] = assay: Antiproliferative activity against mouse BaF3 cells harbouring FLT3-ITD-N676D mutant assessed as inhibition of cell growth incubated for 72 hrs by celltiter-glo luminescent cell viability assay; type: functional, cell-based; conditions: BaF3, 72 h
BaF3 [16] = assay: cells; conditions: Mus musculus, BaF3, 72 h; remark: listed apart in the source
BaF3 [17] = assay: Antiproliferative activity against mouse BaF3 cells harbouring FLT3-D835Y mutant assessed as inhibition of cell growth incubated for 72 hrs by celltiter-glo luminescent cell viability assay; type: functional, cell-based; conditions: BaF3, 72 h
BaF3 [18] = assay: Antiproliferative activity against mouse BaF3 cells harbouring FLT3-ITD-Y842R mutant assessed as inhibition of cell growth incubated for 72 hrs by celltiter-glo luminescent cell viability assay; type: functional, cell-based; conditions: BaF3, 72 h
BaF3 [19] = assay: Antiproliferative activity against mouse BaF3 cells harbouring FLT3-ITD-D835I mutant assessed as inhibition of cell growth incubated for 72 hrs by celltiter-glo luminescent cell viability assay; type: functional, cell-based; conditions: BaF3, 72 h
BaF3 [20] = assay: cells; conditions: Mus musculus, BaF3, 72 h; remark: listed apart in the source
BaF3 [21] = assay: Antiproliferative activity against mouse BaF3 cells harbouring FLT3-D835V mutant assessed as inhibition of cell growth incubated for 72 hrs by celltiter-glo luminescent cell viability assay; type: functional, cell-based; conditions: BaF3, 72 h
BaF3 [22] = assay: Antiproliferative activity against mouse BaF3 cells harbouring FLT3-ITD assessed as inhibition of cell growth incubated for 72 hrs by celltiter-glo luminescent cell viability assay; type: functional, cell-based; conditions: BaF3, 72 h
BaF3 [23] = assay: Antiproliferative activity against mouse BaF3 cells harbouring FLT3-ITD-Y842H mutant assessed as inhibition of cell growth incubated for 72 hrs by celltiter-glo luminescent cell viability assay; type: functional, cell-based; conditions: BaF3, 72 h
BaF3 [24] = assay: Antiproliferative activity against mouse BaF3 cells harbouring FLT3-ITD-F691L mutant assessed as inhibition of cell growth incubated for 72 hrs by celltiter-glo luminescent cell viability assay; type: functional, cell-based; conditions: BaF3, 72 h

Row | half-life [1] | CL/F [2] | bioavailability [3] | IC50 (MV4-11) | AUC(0-t) at 24 h [4] | Cmax [5] | Compound | other results
1 | 4.84 h | 22.8 mL/min/kg | 49.2% | 1.4 nM | 1790 ng·h/mL | 522 ng/mL | CC(C)(C)c1cc(NC(=O)Nc2ccc(C#Cc3ccc(OCCN4CCOCC4)cc3)cc2)no1 | –
2 | – | – | – | 4.8 nM | – | – | CC(C)(C)c1cc(NC(=O)Nc2ccc(C#Cc3ccc(OCCCN4CCOCC4)cc3)cc2F)no1 | –
3 | – | – | – | 9.8 nM | – | – | CC(C)(C)c1cc(NC(=O)Nc2ccc(C#Cc3ccc(OCCCN4CCOCC4)c(Cl)c3)cc2)no1 | –
4 | – | – | – | 4.6 nM | – | – | CC(C)(C)c1cc(NC(=O)Nc2ccc(C#Cc3ccc(OCCCN4CCOCC4)c(F)c3)cc2)no1 | –
5 | – | – | – | 0.9 nM | – | – | CC(C)(C)c1cc(NC(=O)Nc2ccc(C#Cc3ccc(OCCCN4CCOCC4)c(O)c3)cc2)no1 | –
6 | – | – | – | 34.4 nM | – | – | CN(C)C1CCN(CCOc2ccc(C#Cc3ccc(NC(=O)Nc4cc(C(C)(C)C)on4)cc3)cc2)CC1 | –
7 | – | – | – | – | – | – | Nc1ccn([C@@H]2O[C@H](CO)[C@@H](O)[C@@H]2O)c(=O)n1 [CYTARABINE] | inhibition in vivo at 50 mg/kg/day (MOLM-13): 36%
8 | 5.86 h | 4.83 mL/min/kg | 69.3% | 5.2 nM | 11300 ng·h/mL | 1370 ng/mL | CC(C)(C)c1cc(NC(=O)Nc2ccc(C#Cc3ccc(OCCCN4CCOCC4)cc3F)cc2)no1 | inhibition at 30 µM (hERG (KCNH2)): 36.3%
9 | – | – | – | 13.8 nM | – | – | CC(C)(C)c1cc(NC(=O)Nc2ccc(C#Cc3ccc(OCCCN4CCC5(COC5)C4)cc3)cc2)no1 | –
10 | 3.55 h | 26.8 mL/min/kg | 40.8% | 0.8 nM | 1270 ng·h/mL | 194 ng/mL | COc1cc(C#Cc2ccc(NC(=O)Nc3cc(C(C)(C)C)on3)cc2)ccc1OCCCN1CCOCC1 | –
11 | 5.22 h | 7.33 mL/min/kg | 57.6% | 0.9 nM | 6320 ng·h/mL | 741 ng/mL | CC(C)(C)c1cc(NC(=O)Nc2ccc(-c3cn4c(n3)sc3cc(OCCN5CCOCC5)ccc34)cc2)no1 [QUIZARTINIB] | IC50 (BaF3 [6]): 112 nM; IC50 (BaF3 [7]): 7.1 nM; IC50 (BaF3 [8]): 136 nM; IC50 (BaF3 [9]): 23.2 nM; IC50 (BaF3 [10]): 3.1 nM; IC50 (BaF3 [11]): > 1000 nM; IC50 (BaF3 [12]): 73.1 nM; IC50 (BaF3 [13]): 36 nM; Activity [14]: 88.6%; IC50 (BaF3 [15]): 5.5 nM; IC50 (BaF3 [16]): 4.1 nM; IC50 (BaF3 [17]): 3.6 nM; IC50 (BaF3 [18]): 20.8 nM; IC50 (BaF3 [19]): 280 nM; IC50 (BaF3 [20]): 1.6 nM; IC50 (BaF3 [21]): 28.7 nM; IC50 (BaF3 [22]): 0.8 nM; IC50 (BaF3 [23]): 28.8 nM; IC50 (BaF3 [24]): 102 nM
12 | – | – | – | > 1000 nM | – | – | CC(C)(C)c1cc(NC(=O)Nc2ccc(C#Cc3ccc(OCCCN4CCOCC4)cc3)nc2)no1 | –
13 | – | – | – | 25.5 nM | – | – | CC(C)(C)c1cc(NC(=O)Nc2ccc(C#Cc3ccc(OCCCN4CCOCC4)cc3O)cc2)no1 | –
14 | – | – | – | 426 nM | – | – | CC(C)(C)c1cc(NC(=O)Nc2ccc(C#Cc3ccc(OCCCN4CCOCC4)cc3Cl)cc2)no1 | –
15 | – | – | – | 1.9 nM | – | – | CC(C)(C)c1cc(NC(=O)Nc2ccc(C#Cc3cnn4c(OCCCN5CCOCC5)ccnc34)cc2)no1 | –
16 | – | – | – | 551 nM | – | – | COc1cc(C#Cc2ccc(OCCCN3CCOCC3)cc2)ccc1NC(=O)Nc1cc(C(C)(C)C)on1 | –
17 | 2.06 h | 68.2 mL/min/kg | 48.4% | 1.6 nM | 534 ng·h/mL | 133 ng/mL | CN1CCN(CCOc2ccc(C#Cc3ccc(NC(=O)Nc4cc(C(C)(C)C)on4)cc3)cc2)CC1 | –
18 | – | – | – | 3.1 nM | – | – | CC(C)(C)c1cc(NC(=O)Nc2ccc(C#Cc3ccc(OCCCN4C[C@@H]5OCCO[C@@H]5C4)cc3)cc2)no1 | –
19 | – | – | – | 8 nM | – | – | CN(C)C1CCN(CCCOc2ccc(C#Cc3ccc(NC(=O)Nc4cc(C(C)(C)C)on4)cc3)cc2)CC1 | –
20 | – | – | – | > 1000 nM | – | – | CC(C)(C)c1cc(NC(=O)Nc2ccc(C#Cc3ccc(OCCCN4CCOCC4)cc3)cc2C#N)no1 | –
21 | 5.15 h | 44.8 mL/min/kg | 42% | 2.4 nM | 756 ng·h/mL | 100 ng/mL | CN1CCN(CCCOc2ccc(C#Cc3ccc(NC(=O)Nc4cc(C(C)(C)C)on4)cc3)cc2)CC1 | –
22 | 3.9 h | 7.78 mL/min/kg | 63.6% | 1.1 nM | 6770 ng·h/mL | 862 ng/mL | CC(C)(C)c1cc(NC(=O)Nc2ccc(C#Cc3ccc(OCCN4C[C@@H]5OCCO[C@@H]5C4)cc3)cc2)no1 | –
23 | – | – | – | 17.7 nM | – | – | CC(C)(C)c1cc(NC(=O)Nc2ccc(C#Cc3ccc(OCCCN4CCOCC4)c(C(F)(F)F)c3)cc2)no1 | –
